Results as given in ChEMBL document CHEMBL1201862, “PubChem BioAssay data set” (2004).
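Five concentrations, 48 hours, 96-well plates. GI50: concentration for 50% inhibition of growth.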 The source made the active and inactive calls. No stated cut-off is given here; in the data, active = GI50 up to about 1.1 µM and inactive = higher.

Columns and labels:
Experiment in all cases: NCI tumour cell line growth inhibition, 48 h
HCT-116 = test system: HCT-116
LOX IMVI = test system: LOX IMVI
SK-MEL-2 = test system: SK-MEL-2
HCC 2998 = test system: HCC 2998
SNB-75 = test system: SNB-75
MCF7 = test system: MCF7
OVCAR-3 = test system: OVCAR-3
SF-295 = test system: SF-295
OVCAR-4 = test system: OVCAR-4
M14 = test system: M14
PC-3 = test system: PC-3
T47D = test system: T47D
A549 = test system: A549
NCI-H460 = test system: NCI-H460
SW-620 = test system: SW-620
RXF 393 = test system: RXF 393
MDA-MB-435 = test system: MDA-MB-435
A498 = test system: A498
SR = test system: SR
Malme-3M = test system: Malme-3M
HCT-15 = test system: HCT-15
Hs-578T = test system: Hs-578T
HOP-62 = test system: HOP-62
HL-60 = test system: HL-60
UACC-62 = test system: UACC-62
TK-10 = test system: TK-10
IGROV-1 = test system: IGROV-1
BT-549 = test system: BT-549
COLO 205 = test system: COLO 205
CCRF-CEM = test system: CCRF-CEM
NCI-H226 = test system: NCI-H226
SNB-19 = test system: SNB-19
UACC-257 = test system: UACC-257
SK-OV-3 = test system: SK-OV-3
MDA-MB-231 = test system: MDA-MB-231
SK-MEL-5 = test system: SK-MEL-5
UO-31 = test system: UO-31
KM12 = test system: KM12
DU-145 = test system: DU-145
OVCAR-5 = test system: OVCAR-5
NCI-H522 = test system: NCI-H522
OVCAR-8 = test system: OVCAR-8
HOP-92 = test system: HOP-92
MDA-N = test system: MDA-N
U-251 = test system: U-251
SN12C = test system: SN12C
MOLT-4 = test system: MOLT-4
NCI/ADR-RES = test system: NCI/ADR-RES
K562 = test system: K562
NCI-H23 = test system: NCI-H23
ACHN = test system: ACHN
SF-268 = test system: SF-268
SK-MEL-28 = test system: SK-MEL-28
EKVX = test system: EKVX
HT-29 = test system: HT-29
786-0 = test system: 786-0
RPMI-8226 = test system: RPMI-8226
SF-539 = test system: SF-539
CAKI-1 = test system: CAKI-1

## C[C@]12CC[C@H]3[C@@H](CCC4=CC(=O)CC[C@@H]43)[C@@H]1CC[C@]2(O)C(N)=O
HCT-116
  GI50: > 100 µM (inactive)
LOX IMVI
  GI50: > 100 µM (inactive)
SK-MEL-2
  GI50: > 100 µM (inactive)
HCC 2998
  GI50: > 100 µM (inactive)
SNB-75
  GI50: > 100 µM (inactive)
MCF7
  GI50: > 100 µM (inactive)
OVCAR-3
  GI50: > 100 µM (inactive)
SF-295
  GI50: > 100 µM (inactive)
OVCAR-4
  GI50: > 100 µM (inactive)
M14
  GI50: > 100 µM (inactive)
PC-3
  GI50: > 100 µM (inactive)
T47D
  GI50: > 100 µM (inactive)
A549
  GI50: > 100 µM (inactive)
NCI-H460
  GI50: > 100 µM (inactive)
SW-620
  GI50: > 100 µM (inactive)
RXF 393
  GI50: > 100 µM (inactive)
MDA-MB-435
  GI50: > 100 µM (inactive)
A498
  GI50: > 100 µM (inactive)
SR
  GI50: > 100 µM (inactive)
Malme-3M
  GI50: > 100 µM (inactive)
HCT-15
  GI50: > 100 µM
Hs-578T
  GI50: > 100 µM (inactive)
HOP-62
  GI50: > 100 µM (inactive)
HL-60
  GI50: > 100 µM (inactive)
UACC-62
  GI50: > 100 µM (inactive)
TK-10
  GI50: > 100 µM (inactive)
IGROV-1
  GI50: > 100 µM (inactive)
BT-549
  GI50: > 100 µM (inactive)
COLO 205
  GI50: > 100 µM (inactive)
CCRF-CEM
  GI50: > 100 µM (inactive)
NCI-H226
  GI50: > 100 µM (inactive)
SNB-19
  GI50: > 100 µM (inactive)
UACC-257
  GI50: > 100 µM (inactive)
SK-OV-3
  GI50: > 100 µM (inactive)
MDA-MB-231
  GI50: > 100 µM (inactive)
SK-MEL-5
  GI50: > 100 µM (inactive)
UO-31
  GI50: > 100 µM (inactive)
KM12
  GI50: > 100 µM (inactive)
DU-145
  GI50: > 100 µM (inactive)
OVCAR-5
  GI50: > 100 µM (inactive)
NCI-H522
  GI50: > 100 µM (inactive)
OVCAR-8
  GI50: > 100 µM (inactive)
HOP-92
  GI50: > 100 µM (inactive)
MDA-N
  GI50: > 100 µM (inactive)
U-251
  GI50: > 100 µM (inactive)
SN12C
  GI50: > 100 µM (inactive)
MOLT-4
  GI50: > 100 µM (inactive)
NCI/ADR-RES
  GI50: > 100 µM (inactive)
K562
  GI50: > 100 µM (inactive)
NCI-H23
  GI50: > 100 µM (inactive)
ACHN
  GI50: > 100 µM (inactive)
SF-268
  GI50: > 100 µM (inactive)
SK-MEL-28
  GI50: > 100 µM (inactive)
EKVX
  GI50: > 100 µM (inactive)
HT-29
  GI50: > 100 µM (inactive)
786-0
  GI50: > 100 µM (inactive)
RPMI-8226
  GI50: > 100 µM (inactive)
SF-539
  GI50: > 100 µM (inactive)

## O=C(O)CCc1nc2c(n1Cc1ccccc1)C(=O)c1ccccc1C2=O
HCT-116
  GI50: 36.3 µM (inactive)
LOX IMVI
  GI50: 27.2 µM (inactive)
SK-MEL-2
  GI50: 26 µM (inactive)
HCC 2998
  GI50: > 100 µM (inactive)
SNB-75
  GI50: > 100 µM (inactive)
MCF7
  GI50: 43.8 µM (inactive)
OVCAR-3
  GI50: 27.9 µM (inactive)
SF-295
  GI50: 59.6 µM (inactive)
OVCAR-4
  GI50: > 100 µM (inactive)
M14
  GI50: 21.4 µM (inactive)
PC-3
  GI50: 72.9 µM (inactive)
T47D
  GI50: 52 µM (inactive)
A549
  GI50: 50.4 µM (inactive)
NCI-H460
  GI50: 37.9 µM (inactive)
SW-620
  GI50: 31.8 µM (inactive)
RXF 393
  GI50: 24.9 µM (inactive)
MDA-MB-435
  GI50: 19.2 µM (inactive)
A498
  GI50: > 100 µM (inactive)
SR
  GI50: 51.4 µM (inactive)
HCT-15
  GI50: 48.8 µM
Hs-578T
  GI50: 66.5 µM (inactive)
HOP-62
  GI50: > 100 µM (inactive)
HL-60
  GI50: 64 µM (inactive)
UACC-62
  GI50: 38 µM (inactive)
TK-10
  GI50: 34.1 µM (inactive)
IGROV-1
  GI50: 70.3 µM (inactive)
BT-549
  GI50: > 100 µM (inactive)
COLO 205
  GI50: 33.9 µM (inactive)
CCRF-CEM
  GI50: 76.7 µM (inactive)
NCI-H226
  GI50: > 100 µM (inactive)
SNB-19
  GI50: > 100 µM (inactive)
UACC-257
  GI50: 33.7 µM (inactive)
SK-OV-3
  GI50: 69.3 µM (inactive)
MDA-MB-231
  GI50: 33.5 µM (inactive)
SK-MEL-5
  GI50: 21.2 µM (inactive)
UO-31
  GI50: 30.8 µM (inactive)
KM12
  GI50: 52.4 µM (inactive)
CAKI-1
  GI50: > 100 µM (inactive)
DU-145
  GI50: > 100 µM (inactive)
OVCAR-5
  GI50: > 100 µM (inactive)
NCI-H522
  GI50: 24.3 µM (inactive)
OVCAR-8
  GI50: 49.4 µM (inactive)
HOP-92
  GI50: 5.45 µM (inactive)
MDA-N
  GI50: 21.5 µM (inactive)
U-251
  GI50: 56 µM (inactive)
SN12C
  GI50: 44.5 µM (inactive)
MOLT-4
  GI50: 68.9 µM (inactive)
NCI/ADR-RES
  GI50: 59.6 µM (inactive)
K562
  GI50: 57.3 µM (inactive)
NCI-H23
  GI50: 30.3 µM (inactive)
ACHN
  GI50: > 100 µM (inactive)
SF-268
  GI50: 60.5 µM (inactive)
SK-MEL-28
  GI50: > 100 µM (inactive)
EKVX
  GI50: 78.2 µM (inactive)
HT-29
  GI50: 42 µM (inactive)
786-0
  GI50: > 100 µM (inactive)
RPMI-8226
  GI50: 39 µM (inactive)
SF-539
  GI50: 28.1 µM (inactive)

## COc1ccc(C(Nc2ncccn2)c2cc3c(cc2O)OCO3)cc1 (centres undefined)
HCT-116
  GI50: 29.4 µM (inactive)
LOX IMVI
  GI50: 16.9 µM (inactive)
SK-MEL-2
  GI50: 20.7 µM (inactive)
HCC 2998
  GI50: 21.7 µM (inactive)
SNB-75
  GI50: 10.2 µM (inactive)
MCF7
  GI50: 23.5 µM (inactive)
OVCAR-3
  GI50: 17.3 µM (inactive)
SF-295
  GI50: 65.8 µM (inactive)
OVCAR-4
  GI50: 42.8 µM (inactive)
M14
  GI50: 20.6 µM (inactive)
PC-3
  GI50: 19.5 µM (inactive)
T47D
  GI50: 13.3 µM (inactive)
A549
  GI50: 32.2 µM (inactive)
NCI-H460
  GI50: 20.1 µM (inactive)
SW-620
  GI50: 9.42 µM (inactive)
RXF 393
  GI50: 17.9 µM (inactive)
MDA-MB-435
  GI50: 19.9 µM (inactive)
A498
  GI50: 46.5 µM (inactive)
SR
  GI50: 7.14 µM (inactive)
Malme-3M
  GI50: 26.1 µM (inactive)
HCT-15
  GI50: 18.8 µM
Hs-578T
  GI50: 23.4 µM (inactive)
HOP-62
  GI50: 22.4 µM (inactive)
HL-60
  GI50: 16.4 µM (inactive)
UACC-62
  GI50: 32.4 µM (inactive)
TK-10
  GI50: 18.6 µM (inactive)
IGROV-1
  GI50: 23 µM (inactive)
BT-549
  GI50: 23 µM (inactive)
COLO 205
  GI50: 26.6 µM (inactive)
NCI-H226
  GI50: 21.7 µM (inactive)
SNB-19
  GI50: 17.3 µM (inactive)
UACC-257
  GI50: 18.9 µM (inactive)
SK-OV-3
  GI50: 22.1 µM (inactive)
MDA-MB-231
  GI50: 21.3 µM (inactive)
SK-MEL-5
  GI50: 20.4 µM (inactive)
UO-31
  GI50: 17.1 µM (inactive)
KM12
  GI50: 17.9 µM (inactive)
CAKI-1
  GI50: 20.3 µM (inactive)
DU-145
  GI50: 20.5 µM (inactive)
OVCAR-5
  GI50: 31.8 µM (inactive)
NCI-H522
  GI50: 16.7 µM (inactive)
OVCAR-8
  GI50: 19.2 µM (inactive)
HOP-92
  GI50: 37.2 µM (inactive)
MDA-N
  GI50: 18.3 µM (inactive)
U-251
  GI50: 15.4 µM (inactive)
SN12C
  GI50: 17.4 µM (inactive)
MOLT-4
  GI50: 26.3 µM (inactive)
NCI/ADR-RES
  GI50: 30.8 µM (inactive)
K562
  GI50: 23.1 µM (inactive)
NCI-H23
  GI50: 12.7 µM (inactive)
ACHN
  GI50: 41.8 µM (inactive)
SF-268
  GI50: 17.3 µM (inactive)
SK-MEL-28
  GI50: 22.3 µM (inactive)
EKVX
  GI50: 22.9 µM (inactive)
HT-29
  GI50: 24.8 µM (inactive)
786-0
  GI50: 18 µM (inactive)
RPMI-8226
  GI50: 22.8 µM (inactive)
SF-539
  GI50: 15.2 µM (inactive)
